Assay results taken from EP1247803A2, “Indolinone compounds suitable for modulation of protein kinases” (Sugen, Inc., priority 1996, dated 1998).

What was measured:
EGFR = target: T1, EGFR (Homo sapiens, UniProt P00533); experiment: EGFR ELISA assay (in vitro kinase activity, EGFR captured from A431 cell lysate); type: biochemical; design: concentration or dose not given beside the values
T1 construct: Add 7 ug A431 cell lysate per well (EGFR source); endogenous in cells; host or cells: A431
Procedure, shortened: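 EGFR from A431 lysate was captured on anti-EGFR antibody-coated plates and preincubated with compounds for 30 min. Autophosphorylation ran 5 min with 3 uM ATP and 5 mM MnCl2 (final), stopped with 20 mM EDTA. Phosphotyrosine was detected by anti-pTyr ELISA with ABTS/H2O2, read at 410 nm.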

MET = MET biochemical kinase assay; design: species or system human; concentration or dose not given beside the values
Procedure, shortened: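 Colorimetric signal from an HRP-linked anti-phosphotyrosine antibody with TMB measures phosphate incorporated into immobilised MET. The receptor is pulled from lysates by a polyclonal antibody against its cytoplasmic domain, then reacts in ATP- and metal-containing buffer with test compound.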

PDGF-R = PDGF-R (Homo sapiens, UniProt P09619); experiment: PDGF-R ELISA; type: cell-based
Excerpt: A PDGF-R ELISA is described in International Patent Publication No. WO 96/40116, published December 19, 1996 by Tang et al.

Sequence of PDGF-R (P09619 33-1106, species assumed): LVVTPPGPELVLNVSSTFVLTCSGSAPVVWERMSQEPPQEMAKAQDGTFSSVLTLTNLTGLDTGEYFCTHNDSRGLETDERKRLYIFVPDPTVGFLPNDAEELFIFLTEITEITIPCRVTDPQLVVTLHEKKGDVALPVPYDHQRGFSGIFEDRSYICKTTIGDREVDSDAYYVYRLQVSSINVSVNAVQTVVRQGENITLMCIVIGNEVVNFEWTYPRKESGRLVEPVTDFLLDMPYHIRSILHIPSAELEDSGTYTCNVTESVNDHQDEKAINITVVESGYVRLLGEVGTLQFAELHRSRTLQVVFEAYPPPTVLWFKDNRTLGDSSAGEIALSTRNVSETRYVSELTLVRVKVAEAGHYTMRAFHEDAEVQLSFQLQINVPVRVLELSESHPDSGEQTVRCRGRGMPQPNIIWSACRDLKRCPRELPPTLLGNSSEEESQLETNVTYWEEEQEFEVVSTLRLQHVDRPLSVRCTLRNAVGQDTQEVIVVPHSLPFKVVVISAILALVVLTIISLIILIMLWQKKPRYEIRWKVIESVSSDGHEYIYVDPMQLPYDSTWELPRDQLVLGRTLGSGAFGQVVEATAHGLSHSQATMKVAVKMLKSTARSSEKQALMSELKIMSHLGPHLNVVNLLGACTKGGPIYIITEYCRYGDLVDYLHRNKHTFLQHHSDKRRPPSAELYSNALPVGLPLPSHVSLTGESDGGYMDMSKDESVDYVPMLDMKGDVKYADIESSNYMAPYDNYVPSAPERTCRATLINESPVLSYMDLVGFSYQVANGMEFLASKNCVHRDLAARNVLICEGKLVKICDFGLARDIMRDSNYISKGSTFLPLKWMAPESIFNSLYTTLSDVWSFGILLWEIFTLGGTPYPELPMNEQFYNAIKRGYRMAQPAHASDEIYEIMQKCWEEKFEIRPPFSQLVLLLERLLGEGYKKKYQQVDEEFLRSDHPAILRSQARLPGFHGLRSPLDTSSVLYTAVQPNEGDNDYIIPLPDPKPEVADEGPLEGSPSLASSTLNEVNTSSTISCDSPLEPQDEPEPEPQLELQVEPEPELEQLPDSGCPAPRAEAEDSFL
T1 sequence (P00533 25-1210): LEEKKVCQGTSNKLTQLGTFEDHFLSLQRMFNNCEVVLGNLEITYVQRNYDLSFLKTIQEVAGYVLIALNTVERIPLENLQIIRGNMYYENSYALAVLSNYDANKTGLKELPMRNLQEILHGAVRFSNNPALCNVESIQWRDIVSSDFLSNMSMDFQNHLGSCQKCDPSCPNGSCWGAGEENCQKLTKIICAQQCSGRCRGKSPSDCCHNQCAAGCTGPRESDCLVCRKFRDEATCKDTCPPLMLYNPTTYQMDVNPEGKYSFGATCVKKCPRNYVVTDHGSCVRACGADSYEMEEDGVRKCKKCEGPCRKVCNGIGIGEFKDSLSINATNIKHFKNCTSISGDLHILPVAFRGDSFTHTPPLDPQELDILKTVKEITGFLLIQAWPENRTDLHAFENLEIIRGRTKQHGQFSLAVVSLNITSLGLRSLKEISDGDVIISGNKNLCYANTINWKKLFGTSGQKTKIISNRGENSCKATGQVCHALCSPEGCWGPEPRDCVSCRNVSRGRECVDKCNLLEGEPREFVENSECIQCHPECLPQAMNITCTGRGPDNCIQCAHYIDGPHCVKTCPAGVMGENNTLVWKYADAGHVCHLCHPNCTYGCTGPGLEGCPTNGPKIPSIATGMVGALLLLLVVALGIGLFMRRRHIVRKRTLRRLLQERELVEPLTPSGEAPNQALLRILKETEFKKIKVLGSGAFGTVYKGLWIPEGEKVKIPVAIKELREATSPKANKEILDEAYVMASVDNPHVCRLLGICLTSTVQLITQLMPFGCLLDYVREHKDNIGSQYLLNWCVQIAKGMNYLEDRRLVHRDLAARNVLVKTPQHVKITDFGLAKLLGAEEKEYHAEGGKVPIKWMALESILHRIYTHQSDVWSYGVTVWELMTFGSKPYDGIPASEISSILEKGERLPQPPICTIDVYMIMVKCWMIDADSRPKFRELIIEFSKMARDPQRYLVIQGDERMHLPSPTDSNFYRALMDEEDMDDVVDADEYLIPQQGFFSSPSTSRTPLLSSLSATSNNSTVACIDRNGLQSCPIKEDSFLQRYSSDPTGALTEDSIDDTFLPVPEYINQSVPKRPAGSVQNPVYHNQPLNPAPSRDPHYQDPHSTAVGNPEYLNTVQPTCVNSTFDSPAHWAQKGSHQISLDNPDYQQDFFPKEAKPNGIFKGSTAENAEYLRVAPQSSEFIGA

Row | Compound | Biochem EGFR %Inhibition (EGFR) [%] | Met Kinase % Inhibition (MET) [%] | PDGF Kinase %Inhibition (PDGF-R) [%]
1 | O=C1Nc2c(Br)cc(Br)cc2C1=Cc1ccc(F)cc1 [10717/A05] | 16.6 | 35.6 | 
2 | Cc1ccc(C=C2C(=O)Nc3ccc(S(=O)(=O)N4CCOCC4)cc32)s1 [10717/F07] | -14.3 | 37.6 | 
3 | O=C1Nc2ccc(S(=O)(=O)N3CCOCC3)cc2C1=Cc1ccc(Br)cc1 [10717/F08] | -23.4 | 64.0 | 
4 | O=C1Nc2ccc(S(=O)(=O)N3CCOCC3)cc2C1=Cc1ccc[nH]1 [10717/F09] | 1.8 | 41.4 | 
5 | COc1cccc(O)c1C=C1C(=O)Nc2ccc(S(=O)(=O)N3CCOCC3)cc21 [10717/F10] | -26.4 | 54.6 | 
6 | Cc1[nH]c(C=C2C(=O)Nc3ccc(S(=O)(=O)N4CCOCC4)cc32)c(Br)c1Br [10717/F11] | 91.2 | 81.5 | 
7 | CCOc1ccccc1C=C1C(=O)Nc2ccc(CCCl)cc21 [10717/G02] | 32.3 | 30.7 | 
8 | O=C1Nc2ccc(CCCl)cc2C1=Cc1cccs1 [10717/G03] | 18.8 | 4.5 | 
9 | Cc1c(Br)ccc2c1C(=Cc1sccc1Br)C(=O)N2 [10725/C02] | -43.4 | 6.3 | -5.1
10 | COc1ccc(Br)c(C=C2C(=O)Nc3ccc(Br)c(C)c32)c1O [10725/C03] | -12.7 | 72.9 | 19.3
11 | Cc1ccc(C=C2C(=O)Nc3ccc(Br)c(C)c32)o1 [10725/C04] | 31.8 | 75.9 | 25.1
12 | Cc1cc(C=C2C(=O)Nc3ccc(Br)c(C)c32)[nH]n1 [10725/C05] | -21.9 | 31.7 | 28.9
13 | COc1cc(C)cc(O)c1C=C1C(=O)Nc2ccc(Br)c(C)c21 [10725/C06] | -11.5 | 54.7 | 46.6
14 | Cc1c(Br)ccc2c1C(=Cc1ccc(N3CCN(C=O)CC3)cc1)C(=O)N2 [10725/C07] | -16.5 | 38.8 | 107.0
15 | Cc1c(Br)ccc2c1C(=Cc1ccc(N3CCOCC3)cc1)C(=O)N2 [10725/C08] | -11.9 | 28.0 | 101.7
16 | COC(=O)Cc1c(Cl)[nH]c(C=C2C(=O)Nc3ccc(Br)c(C)c32)c1C(=O)OC [10725/C09] | 23.6 | 24.1 | 34.7
17 | Cc1c(Br)ccc2c1C(=Cc1c(Br)cnn1-c1ccc(Cl)cc1)C(=O)N2 [10725/C10] | 5.3 | -0.6 | 38.5
18 | Cc1c(Br)ccc2c1C(=Cc1c[nH]cn1)C(=O)N2 [10725/C11] | -22.1 | 48.4 | 80.7
19 | CNS(=O)(=O)c1ccc2c(c1)C(=Cc1sccc1Br)C(=O)N2 [10725/D02] | -23.9 | 14.0 | -8.4
20 | CNS(=O)(=O)c1ccc2c(c1)C(=Cc1c(Br)ccc(OC)c1O)C(=O)N2 [10725/D03] | -2.5 | 72.9 | 5.4
21 | CNS(=O)(=O)c1ccc2c(c1)C(=Cc1ccc(C)o1)C(=O)N2 [10725/D04] | 4.3 | 55.1 | 12.2
22 | CNS(=O)(=O)c1ccc2c(c1)C(=Cc1cc(C)n[nH]1)C(=O)N2 [10725/D05] | -19.7 | 24.5 | 10.7
23 | CNS(=O)(=O)c1ccc2c(c1)C(=Cc1c(O)cc(C)cc1OC)C(=O)N2 [10725/D06] | -26.4 | 24.7 | 21.7
24 | CNS(=O)(=O)c1ccc2c(c1)C(=Cc1ccc(N3CCN(C=O)CC3)cc1)C(=O)N2 [10725/D07] | -25.8 | 37.0 | 18.4

Row | Compound | Biochem EGFR %Inhibition (EGFR) [%] | Met Kinase % Inhibition (MET) [%] | PDGF Kinase %Inhibition (PDGF-R) [%]
25 | CNS(=O)(=O)c1ccc2c(c1)C(=Cc1ccc(N3CCOCC3)cc1)C(=O)N2 [10725/D08] | 20.0 | 39.2 | 38.5
26 | CNS(=O)(=O)c1ccc2c(c1)C(=Cc1[nH]c(Cl)c(CC(=O)OC)c1C(=O)OC)C(=O)N2 [10725/D09] | 4.3 | 28.0 | 35.6
27 | CNS(=O)(=O)c1ccc2c(c1)C(=Cc1c(Br)cnn1-c1ccc(Cl)cc1)C(=O)N2 [10725/D10] | 11.7 | 27.8 | 43.8
28 | CNS(=O)(=O)c1ccc2c(c1)C(=Cc1c[nH]cn1)C(=O)N2 [10725/D11] | -12.5 | 100.5 | 23.2
29 | O=C1Nc2ccc(S(=O)(=O)Nc3ccc(C(F)(F)F)cc3)cc2C1=Cc1sccc1Br [10725/E02] | 4.3 | 40.2 | -8.9
30 | COc1ccc(Br)c(C=C2C(=O)Nc3ccc(S(=O)(=O)Nc4ccc(C(F)(F)F)cc4)cc32)c1O [10725/E03] | -10.3 | 60.9 | 10.7
31 | Cc1ccc(C=C2C(=O)Nc3ccc(S(=O)(=O)Nc4ccc(C(F)(F)F)cc4)cc32)o1 [10725/E04] | 31.2 | 59.0 | 3.1
32 | Cc1cc(C=C2C(=O)Nc3ccc(S(=O)(=O)Nc4ccc(C(F)(F)F)cc4)cc32)[nH]n1 [10725/E05] | -5.5 | 28.2 | 27.5
33 | COc1cc(C)cc(O)c1C=C1C(=O)Nc2ccc(S(=O)(=O)Nc3ccc(C(F)(F)F)cc3)cc21 [10725/E06] | -17.7 | 36.7 | 39.0
34 | O=CN1CCN(c2ccc(C=C3C(=O)Nc4ccc(S(=O)(=O)Nc5ccc(C(F)(F)F)cc5)cc43)cc2)CC1 [10725/E07] | 12.5 | 45.3 | 28.9
35 | O=C1Nc2ccc(S(=O)(=O)Nc3ccc(C(F)(F)F)cc3)cc2C1=Cc1ccc(N2CCOCC2)cc1 [10725/E08] | 14.2 | 39.7 | 48.6
36 | COC(=O)Cc1c(Cl)[nH]c(C=C2C(=O)Nc3ccc(S(=O)(=O)Nc4ccc(C(F)(F)F)cc4)cc32)c1C(=O)OC [10725/E09] | 31.4 | 22.4 | 37.5
37 | O=C1Nc2ccc(S(=O)(=O)Nc3ccc(C(F)(F)F)cc3)cc2C1=Cc1c(Br)cnn1-c1ccc(Cl)cc1 [10725/E10] | 6.1 | -4.7 | 28.4
38 | O=C1Nc2ccc(S(=O)(=O)Nc3ccc(C(F)(F)F)cc3)cc2C1=Cc1c[nH]cn1 [10725/E11] | -36.0 | 9.6 | 20.8
39 | O=C1Nc2ccc(S(=O)(=O)N3CCOCC3)cc2C1=Cc1sccc1Br [10725/F02] | -3.7 | 27.8 | -15.1
40 | COc1ccc(Br)c(C=C2C(=O)Nc3ccc(S(=O)(=O)N4CCOCC4)cc32)c1O [10725/F03] | -36.2 | 63.2 | -27.1
41 | Cc1ccc(C=C2C(=O)Nc3ccc(S(=O)(=O)N4CCOCC4)cc32)o1 [10725/F04] | -49.6 | 38.1 | -4.6
42 | Cc1cc(C=C2C(=O)Nc3ccc(S(=O)(=O)N4CCOCC4)cc32)[nH]n1 [10725/F05] | -18.9 | 15.5 | -5.6
43 | COc1cc(C)cc(O)c1C=C1C(=O)Nc2ccc(S(=O)(=O)N3CCOCC3)cc21 [10725/F06] | -37.8 | 41.8 | 14.1
44 | O=CN1CCN(c2ccc(C=C3C(=O)Nc4ccc(S(=O)(=O)N5CCOCC5)cc43)cc2)CC1 [10725/F07] | 16.4 | 67.8 | 15.0
45 | O=C1Nc2ccc(S(=O)(=O)N3CCOCC3)cc2C1=Cc1ccc(N2CCOCC2)cc1 [10725/F08] | 15.4 | 72.2 | 28.9
46 | COC(=O)Cc1c(Cl)[nH]c(C=C2C(=O)Nc3ccc(S(=O)(=O)N4CCOCC4)cc32)c1C(=O)OC [10725/F09] | 32.2 | 48.5 | 28.4
47 | O=C1Nc2ccc(S(=O)(=O)N3CCOCC3)cc2C1=Cc1c(Br)cnn1-c1ccc(Cl)cc1 [10725/F10] | 3.7 | 14.2 | 17.9
